Laboratory results reported in the OPERA property sets (Mansouri et al. 2018).

Conditions: for log10 biotransformation half-life (days) / log10 BCF: fish

SMILES	boiling point	melting point	other results
CCC1(C)OCCO1	116 °C		
CC(C)COC(=O)C(C)C	149 °C	-80.7 °C	log10 vapour pressure (mmHg): 0.636
C/C=C/CCC	66.5 °C	-98 °C	
CC(C)(C)c1ccc2ccccc2c1	276 °C	-4 °C	
CCOc1ccc2nc(S)sc2c1		199 °C	
CCCCCCCCC(C)=O	210 °C	14 °C	log10 vapour pressure (mmHg): -0.571; ready biodegradability: readily biodegradable
CN(C)CCCNc1c2ccccc2nc2cccc([N+](=O)[O-])c12		134 °C	
NC(=O)c1ccccc1OCC(=O)O		221 °C	
N#Cc1cc[n+]([O-])cc1		224 °C	
c1ccc2c(c1)cc1ccc3cccc4ccc2c1c34	495 °C	176 °C	log10 Henry constant (atm·m³/mol): -6.34; log10 Koc (L/kg): 5.95; log10 biodegradation half-life (days): 2.35; log10 vapour pressure (mmHg): -8.26; log10 biotransformation half-life (days): 0.05
CCC(C)(C)C(C)(C)CC	170 °C		
CC1=Cc2ccccc2C1	208 °C	80 °C	log10 biodegradation half-life (days): 0.477
O=C(O)COc1cccc(Cl)c1Cl		174 °C	
CCN(CC)C(C)CN1c2ccccc2Sc2ccccc21 (stereo unspecified)		64.5 °C	
Cc1csc(C)c1	141 °C		
O=C1C=CC(=O)c2c(O)cccc21		155 °C	
CCOC(=O)c1c(N)sc2c1CCN(Cc1ccccc1)C2		112 °C	
Cc1cccc(C(=O)O)c1O		166 °C	ready biodegradability: not readily biodegradable
C[C@H]1C(=O)CC[C@@H]2[C@]1(C)CC[C@H]1[C@@]2(C)CC[C@@]2(C)[C@@H]3CC(C)(C)CC[C@]3(C)CC[C@]12C		263 °C	
C[C@@H](CN1CC(=O)NC(=O)C1)N1CC(=O)NC(=O)C1		238 °C	
Nc1ncnc(Nc2ccccc2)n1		236 °C	

SMILES	boiling point	melting point	other results
Fc1c(F)c(F)c(Br)c(F)c1F	137 °C	-31 °C	log10 vapour pressure (mmHg): 0.903
CCn1cc(C(=O)O)c(=O)c2ccc(-c3ccncc3)cc21		290 °C	
Clc1ccc(Oc2c(Cl)cccc2Cl)cc1			log10 vapour pressure (mmHg): -3.66
N#CCO	183 °C		
Oc1ccc(Br)cc1Cl	234 °C	50.5 °C	
N#Cc1ccc2c(c1)N(CCCN1CCC(O)CC1)c1ccccc1S2		116 °C	
CCC(C)NC(C)CC (stereo unspecified)	135 °C		ready biodegradability: not readily biodegradable
CC(=O)C(F)(F)F	22 °C		log10 Henry constant (atm·m³/mol): -5.11
Clc1ccc(Oc2ccc(Cl)cc2Cl)c(Cl)c1			log10 biotransformation half-life (days): 2.28
CCOc1ccccc1	170 °C	-29.5 °C	log10 vapour pressure (mmHg): 0.185; ready biodegradability: readily biodegradable
C=COCCOCCO	196 °C		
O=C(NC(=O)c1ccccc1)c1ccccc1		152 °C	
CC(C)COC(=O)c1ccccc1O	261 °C	5.9 °C	
C[B]C	70.5 °C	-72.5 °C	
Cc1ccccc1-n1c(C)nc2ccccc2c1=O		120 °C	
COc1cc(C)cc(C)c1	194 °C		
O=c1n(CC2CO2)c(=O)n(CC2CO2)c(=O)n1CC1CO1 (stereo unspecified)			ready biodegradability: not readily biodegradable
Cc1ccc(/C(=C\CN2CCCC2)c2ccccn2)cc1		60 °C	
Brc1ccc(Oc2ccccc2)c(Br)c1			log10 Koa: 8.37
O=C1C=CC(=O)C(c2ccccc2)=C1		114 °C	
FCCF	30.7 °C		log10 vapour pressure (mmHg): 2.79

SMILES	boiling point	melting point	other results
COc1ccc(Cl)cc1C(=O)NCCc1ccc(S(=O)(=O)NC(=O)NC2CCCCC2)cc1		169 °C	
CC(C)COc1ccc2ccccc2c1		31 °C	ready biodegradability: not readily biodegradable; log10 BCF: 2.8; log10 biotransformation half-life (days): 0.23
CNC(=O)Oc1cccc(N=CN(C)C)c1			log10 Koc (L/kg): 2.44
ClC(Cl)=C(Cl)C(Cl)=C(Cl)Cl	215 °C	-21 °C	log10 Henry constant (atm·m³/mol): -1.99; log10 vapour pressure (mmHg): -0.658; ready biodegradability: not readily biodegradable; log10 BCF: 3.82; log10 biotransformation half-life (days): 2.07
OCCc1c[nH]c2ccccc12		59 °C	
CC(C)=C(C)Cl	96 °C		
CNc1ccccc1[N+](=O)[O-]		38 °C	
FC(F)(F)C(F)(F)C(F)(F)N(C(F)(F)C(F)(F)C(F)(F)F)C(F)(F)C(F)(F)C(F)(F)F	130 °C	-52 °C	
O=Cc1cccc2c1CCOC2=O		140 °C	
CN(C)CCc1c[nH]c2ccccc12		46 °C	
CC[C@H]1OC(=O)[C@H](C)[C@@H](O[C@H]2C[C@@](C)(OC)[C@@H](O)[C@H](C)O2)[C@H](C)[C@@H](O[C@@H]2O[C@H](C)C[C@H](N(C)C)[C@H]2O)[C@](C)(O)C[C@@H](C)C(=O)[C@H](C)[C@@H](O)[C@]1(C)O		191 °C	
Cc1ccc2nc3sc(=O)sc3nc2c1		170 °C	log10 Koc (L/kg): 3.36; log10 vapour pressure (mmHg): -6.7
C[C@@H]1CCC[C@H]1O	150 °C		
C=C(C)[C@@H]1CC=C(C)C(=O)C1			log10 vapour pressure (mmHg): -0.988
ClC[Si](Cl)(Cl)Cl	118 °C		
CC(=O)Nc1ccc(OC(=O)c2ccccc2OC(C)=O)cc1		175 °C	
CC(I)I	180 °C		
Clc1cccc(-c2ccccc2)c1Cl			log10 Henry constant (atm·m³/mol): -3.64; log10 BCF: 3.98; log10 biotransformation half-life (days): 2.15
Cc1cc(C)c(NC(=O)CN(CC(=O)O)CC(=O)O)c(C)c1Br		199 °C	
Nc1cccc(Br)c1	251 °C	18.5 °C	
ClCI	109 °C		log10 Henry constant (atm·m³/mol): -3.06
